For 36 compounds, MIC results are on record in patent US8865734B2 (priority 2010, dated 2014).

SMILES strings stand for the structures. ≈ marks a conversion by molar mass, not a printed value. Read-outs that look alike come from different tables or passages of the source. Where only a bound is given, the exact number is not on record here.

Experiment [1] has as its system in vitro grown Mycobacteria (M. tuberculosis). The experiment in a line: QUM: Quantification of in vitro grown Mycobacteria (in vitro growth fluorescence assay). In kind it is cell-based. The settings on record: Mycobacterium tuberculosis. An excerpt: (§1) A 120,000 small molecule compound library was screened using a validated phenotypic cell-based assay (WO2010003533A2). Active compounds from the primary screen were confirmed via dose response in the intracellular (QIM) assay and an in vitro (QUM) assay, wherein the abbreviation “QIM” stands for Quantification of Intracellular Mycobacteria and the abbreviation “QUM” stands for Quantification of in vitro grown Mycobacteria. […] The MIC is the minimum concentration of compound required to obtain 80% bacterial growth inhibition.
(§2) The imidazopyridine compounds (scaffolds Ia and Ib; see Table 1) underwent derivatization according to the methods outlined below (Schemes 1-13). Resulting derivatives were examined for inhibitory activity (MIC) using the assays described above (Example 1) and the results are summarized in Table 1.

The subject of experiment [2] is M. tuberculosis inside the host macrophage. The experiment in a line: QIM: Quantification of Intracellular Mycobacteria (intracellular growth assay, phenotypic cell-based). The settings on record: Mycobacterium tuberculosis.
Excerpt: Accordingly, a phenotypic cell-based assay, suitable for high throughput screening, which allows for the search of compounds that would prevent M. tuberculosis multiplication inside the host macrophage was utilized (WO2010003533A2), overcoming many of the numerous and burdensome steps involved in previous methodologies (Arain et al., 1996).
as §1, §2

Where [3] appears, read: MIC, 80% bacterial growth inhibition, in vitro growth, read-out: QUM.
The mark [4] stands for this setting: MIC, 80% bacterial growth inhibition, intracellular growth, read-out: QIM.

For the compound `Cc1nc2ccccn2c1C(=O)O` [Compound 1, 2-Methylimidazo[1,2-a]pyridine-3-carboxylic acid], the MIC in experiment [1] (setting [3]) and in experiment [2] (setting [4]) was greater than 20 µM each time. For the compound `CCOC(=O)c1c(C)nc2cc(-c3ccccc3)ccn12` [Compound 2, Ethyl 2-methyl-7-phenylimidazo[1,2-a]pyridine-3-carboxylate], the MIC in experiment [1] (setting [3]) and in experiment [2] (setting [4]) was greater than 20 µM throughout. As for `Cc1nc2cc(-c3ccccc3)ccn2c1C(=O)O` [Compound 3, 2-Methyl-7-phenylimidazo[1,2-a]pyridine-3-carboxylic acid], the MIC in experiment [1] (setting [3]) and in experiment [2] (setting [4]) was greater than 20 µM throughout. For the compound `CCOC(=O)c1c(C)nc2ccc(-c3ccccc3)cn12` [Compound 4, Ethyl 2-methyl-6-phenylimidazo[1,2-a]pyridine-3-carboxylate], the MIC in experiment [1] (setting [3]) and in experiment [2] (setting [4]) was greater than 20 µM each time. For `Cc1nc2ccccn2c1C(=O)Nc1ccncc1` [Compound 5, 2-Methyl-N-(pyridin-4-yl)imidazo[1,2-a]pyridine-3-carboxamide], the MIC in experiment [1] (setting [3]) and in experiment [2] (setting [4]) was greater than 20 µM in each case. Turning to `Cc1nc2ccccn2c1C(=O)Nc1ccc(Oc2ccccc2)cc1` [Compound 6, 2-Methyl-N-(4-phenoxyphenyl)imidazo[1,2-a]pyridine-3-carboxamide], the MIC in experiment [1] (setting [3]) and in experiment [2] (setting [4]) was greater than 20 µM throughout.

On to `Cc1nc2ccccn2c1C(=O)Nc1ccc(OCc2ccccc2)cc1` [Compound 7, N-(4-(Benzyloxy)phenyl)-2-methylimidazo[1,2-a]pyridine-3-carboxamide], for which the MIC in experiment [1] (setting [3]) and in experiment [2] (setting [4]) was greater than 20 µM in each case.

Take `Cc1nc2ccccn2c1C(=O)NCc1ccccc1` [Compound 8, N-Benzyl-2-methylimidazo[1,2-a]pyridine-3-carboxamide]: the MIC is greater than 20 µM in experiment [1] (read-out: QUM (μM)); 5 µM (≈ 1.33 µg/mL) in experiment [1] (dose response confirmation, 80% bacterial growth inhibition, read-out: minimum inhibitory concentration (MIC), QUM assay); 1 to 20 µM (≈ 0.265 to 5.31 µg/mL) in experiment [2] (read-out: QIM (μM)); 2.5 µM (≈ 0.663 µg/mL) in experiment [2] (dose response confirmation, 80% bacterial growth inhibition, read-out: minimum inhibitory concentration (MIC), QIM assay).

For the compound `Cc1nc2ccccn2c1C(=O)NCc1ccc(F)cc1` [Compound 9, N-(4-Fluorobenzyl)-2-methylimidazo[1,2-a]pyridine-3-carboxamide], the MIC in experiment [1] (setting [3]) and in experiment [2] (setting [4]) was greater than 20 µM each time.

For `COC(=O)c1ccc(CNC(=O)c2c(C)nc3ccccn23)cc1` [Compound 10, Methyl 4-((2-me3thylimidazo[1,2-a]pyridine-3-carboxamido)methyl)benzoate], the MIC in experiment [1] (setting [3]) was 1 to 20 µM (≈ 0.323 to 6.47 µg/mL); in experiment [2] (setting [4]), greater than 20 µM. As to `Cc1nc2ccccn2c1C(=O)NCc1ccc(C(=O)O)cc1` [Compound 11, 4-((2-Methylimidazo[1,2-a]pyridine-3-carboxamido)methyl)benzoic acid], the MIC in experiment [1] (setting [3]) and in experiment [2] (setting [4]) was greater than 20 µM throughout. For the compound `COc1ccc(CNC(=O)c2c(C)nc3ccccn23)cc1` [Compound 12, N-(4-Methoxybenzyl)-2-methylimidazo[1,2-a]pyridine-3-carboxamide], the MIC in experiment [1] (setting [3]) and in experiment [2] (setting [4]) was 1 to 20 µM (≈ 0.295 to 5.91 µg/mL) each time.

Regarding `Cc1nc2ccccn2c1C(=O)NCc1cccnc1` [Compound 13, 2-Methyl-N-(pyridin-3-ylmethyl)imidazo[1,2-a]pyridine-3-carboxamide], the MIC in experiment [1] (setting [3]) and in experiment [2] (setting [4]) was greater than 20 µM throughout. For `Cc1nc2ccccn2c1C(=O)NCc1ccncc1` [Compound 14, 2-Methyl-N-(pyridin-4-ylmethyl)imidazo[1,2-a]pyridine-3-carboxamide], the MIC in experiment [1] (setting [3]) and in experiment [2] (setting [4]) was greater than 20 µM throughout. Take `Cc1nc2ccccn2c1C(=O)NCc1ccc(Oc2ccccc2)cc1` [Compound 15, 2-Methyl-N-(4-phenoxybenzyl)imidazo[1,2-a]pyridine-3-carboxamide]: the MIC was 1 to 20 µM (≈ 0.357 to 7.15 µg/mL) in experiment [1] (setting [3]) and less than 1 µM in experiment [2] (setting [4]). Taken in the same sequence, the figures for `Cc1nc2ccccn2c1C(=O)NCc1ccc(-c2ccccc2)cc1` [Compound 16, N-(Biphenyl-4-ylmethyl)-2-methylimidazo[1,2-a]pyridine-3-carboxamide] were less than 1 µM and less than 1 µM. With `Cc1nc2ccccn2c1C(=O)NCc1ccc2[nH]ccc2c1` [Compound 17, N-((1H-Indol-5-yl)methyl)-2-methylimidazo[1,2-a]pyridine-3-carboxamide], the MIC in experiment [1] (setting [3]) and in experiment [2] (setting [4]) was 1 to 20 µM (≈ 0.304 to 6.09 µg/mL) throughout. On to `Cc1nc2ccccn2c1C(=O)NCC1CCCCC1` [Compound 18, N-(Cyclohexylmethyl)-2-methylimidazo[1,2-a]pyridine-3-carboxamide], for which the MIC in experiment [1] (setting [3]) and in experiment [2] (setting [4]) was greater than 20 µM each time. As to `Cc1nc2ccccn2c1C(=O)NCC1CCN(C(=O)OC(C)(C)C)CC1` [Compound 19, tert-Butyl 4-((2-methylimidazo[1,2-a]pyridine-3-carboxamido)methyl)piperidine-1-carboxylate], the MIC in experiment [1] (setting [3]) and in experiment [2] (setting [4]) was greater than 20 µM in each case. In the case of `Cc1nc2ccccn2c1C(=O)NCC1CCNCC1` [Compound 20, 2-Methyl-N-(piperidin-4-ylmethyl)imidazo[1,2-a]pyridine-3-carboxamide], the MIC in experiment [1] (setting [3]) and in experiment [2] (setting [4]) was greater than 20 µM throughout. As to `Cc1nc2ccccn2c1C(=O)NCCc1ccccc1` [Compound 21, 2-Methyl-N-phenethylimidazo[1,2-a]pyridine-3-carboxamide], the MIC in experiment [1] (setting [3]) and in experiment [2] (setting [4]) was greater than 20 µM throughout. Consider `COc1ccc(CCNC(=O)c2c(C)nc3ccccn23)cc1` [Compound 22, N-(4-Methoxyphenethyl)-2-methylimidazo[1,2-a]pyridine-3-carboxamide], for which the MIC in experiment [1] (setting [3]) and in experiment [2] (setting [4]) was greater than 20 µM in each case. For the compound `Cc1nc2ccccn2c1C(=O)NCCOc1ccccc1` [Compound 23, 2-Methyl-N-(2-phenoxyethyl)imidazo[1,2-a]pyridine-3-carboxamide], the MIC in experiment [1] (setting [3]) and in experiment [2] (setting [4]) was 1 to 20 µM (≈ 0.295 to 5.91 µg/mL) in each case. Regarding `Cc1nc2ccccn2c1C(=O)NCCOCc1ccccc1` [Compound 24, N-(2-(Benzyloxy)ethyl)-2-methylimidazo[1,2-a]pyridine-3-carboxamide], the MIC in experiment [1] (setting [3]) and in experiment [2] (setting [4]) was greater than 20 µM each time. `COC(=O)[C@H](Cc1ccccc1)NC(=O)c1c(C)nc2ccccn12` [Compound 25, (S)-Methyl 2-(2-methylimidazo[1,2-a]pyridine-3-carboxamido)-3-phenylpropanoate]: the MIC in experiment [1] (setting [3]) and in experiment [2] (setting [4]) was greater than 20 µM throughout. On to `Cc1nc2ccccn2c1NC(=O)Cc1ccccc1` [Compound 26, N-(2-Methylimidazo[1,2-a]pyridin-3-yl)-2-phenylacetamide], for which the MIC in experiment [1] (setting [3]) and in experiment [2] (setting [4]) was greater than 20 µM each time. Consider `Cc1nc2c(Cl)cccn2c1C(=O)NCc1ccccc1` [Compound 27, N-Benzyl-8-chloro-2-methylimidazo[1,2-a]pyridine-3-carboxamide], for which the MIC in experiment [1] (setting [3]) and in experiment [2] (setting [4]) was greater than 20 µM each time. Turning to `Cc1nc2cc(Cl)ccn2c1C(=O)NCc1ccccc1` [Compound 28, N-Benzyl-7-chloro-2-methylimidazo[1,2-a]pyridine-3-carboxamide], the MIC in experiment [1] (setting [3]) was greater than 20 µM; in experiment [2] (setting [4]), 1 to 20 µM (≈ 0.3 to 6 µg/mL).

As to `Cc1nc2ccc(Cl)cn2c1C(=O)NCc1ccccc1` [Compound 29, N-Benzyl-6-chloro-2-methylimidazo[1,2-a]pyridine-3-carboxamide], the MIC in experiment [1] (setting [3]) and in experiment [2] (setting [4]) was 1 to 20 µM (≈ 0.3 to 6 µg/mL) in each case. As to `CCc1nc2ccc(Cl)cn2c1C(=O)NCc1ccc(N2CCC(C(=O)N(C)C)CC2)cc1` [Compound 345, 6-Chloro-N-(4-(4-(dimethylcarbamoyl)piperidin-1-yl)benzyl)-2-ethylimidazo[1,2-a]pyridine-3-carboxamide], the MIC in experiment [1] (setting [3]) is less than 1 µM. In the case of `CCc1nc2cc(Cl)ccn2c1C(=O)NCc1ccc(N2CCC(C(=O)N(C)C)CC2)cc1` [Compound 346, 7-Chloro-N-(4-(4-(dimethylcarbamoyl)piperidin-1-yl)benzyl)-2-ethylimidazo[1,2-a]pyridine-3-carboxamide], the MIC in experiment [1] (setting [3]) is less than 1 µM.

Take `CCc1nc2ccc(Cl)cn2c1C(=O)NCc1ccc(N2CCC(OCc3ccc(F)cc3)CC2)cc1` [Compound 347, 6-Chloro-2-ethyl-N-(4-(4-(4-fluorobenzyloxy)piperidin-1-yl)benzyl)imidazo[1,2-a]pyridine-3-carboxamide]: the MIC in experiment [1] (setting [3]) is less than 1 µM.

Regarding `CCc1nc2cc(Cl)ccn2c1C(=O)NCc1ccc(N2CCC(OCc3ccc(F)cc3)CC2)cc1` [Compound 348, 7-Chloro-2-ethyl-N-(4-(4-(4-fluorobenzyloxy)piperidin-1-yl)benzyl)imidazo[1,2-a]pyridine-3-carboxamide], the MIC in experiment [1] (setting [3]) lay within 1 to 20 µM (≈ 0.521 to 10.4 µg/mL). The same measure, in the same setting: with `CCc1nc2cc(Cl)ccn2c1C(=O)NCc1ccc(N2CCOCC2)c(Cl)c1` [Compound 350, 7-Chloro-N-(3-chloro-4-morpholinobenzyl)-2-ethylimidazo[1,2-a]pyridine-3-carboxamide] the figure was less than 1 µM; with `CCc1nc2ccc(Cl)cn2c1C(=O)NCc1ccc(N2CCC(C=O)CC2)cc1` [Compound 351, 6-Chloro-2-ethyl-N-(4-(4-formylpiperidin-1-yl)benzyl)imidazo[1,2-a]pyridine-3-carboxamide], less than 1 µM.

Take `CCc1nc2cc(Cl)ccn2c1C(=O)NCc1ccc(N2CCC(C=O)CC2)cc1` [Compound 352, 7-Chloro-2-ethyl-N-(4-(4-formylpiperidin-1-yl)benzyl)imidazo[1,2-a]pyridine-3-carboxamide]: the MIC in experiment [1] (setting [3]) is less than 1 µM.
